Where two headings read alike, the source gives them in different places.
Legend:
BRG-1 = target: T1, BRG-1 (Homo sapiens, UniProt P51532); test: ATPase catalytic activity of BRG-1, ADP-Glo in vitro biochemical assay; conditions: 30 nM BRG-1, 400 μM ATP, read-out: BRG1 IC50
T1 construct: made in house; host or cells: High Five insect cells
Method in brief: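 BRG-1 ATPase activity was measured in vitro by ADP-Glo. After the reaction, ADP-Glo Reagent depleted unconsumed ATP (40 min, room temperature), then Kinase Detection Reagent converted product ADP to ATP (60 min, room temperature), and luciferase luminescence was read.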

BRM = target: T2, BRM (Homo sapiens, UniProt P51531); test: ATPase catalytic activity of BRM, ADP-Glo in vitro biochemical assay; conditions: for IC50: 30 nM BRM, 400 μM ATP; for Ratio* (BRG1 IC50 (μM) divided by BRM IC50 (μM)): selectivity ratio BRG1 IC50 / BRM IC50
T2 construct: made in house; host or cells: High Five insect cells
T2 sequence (P51531 whole entry): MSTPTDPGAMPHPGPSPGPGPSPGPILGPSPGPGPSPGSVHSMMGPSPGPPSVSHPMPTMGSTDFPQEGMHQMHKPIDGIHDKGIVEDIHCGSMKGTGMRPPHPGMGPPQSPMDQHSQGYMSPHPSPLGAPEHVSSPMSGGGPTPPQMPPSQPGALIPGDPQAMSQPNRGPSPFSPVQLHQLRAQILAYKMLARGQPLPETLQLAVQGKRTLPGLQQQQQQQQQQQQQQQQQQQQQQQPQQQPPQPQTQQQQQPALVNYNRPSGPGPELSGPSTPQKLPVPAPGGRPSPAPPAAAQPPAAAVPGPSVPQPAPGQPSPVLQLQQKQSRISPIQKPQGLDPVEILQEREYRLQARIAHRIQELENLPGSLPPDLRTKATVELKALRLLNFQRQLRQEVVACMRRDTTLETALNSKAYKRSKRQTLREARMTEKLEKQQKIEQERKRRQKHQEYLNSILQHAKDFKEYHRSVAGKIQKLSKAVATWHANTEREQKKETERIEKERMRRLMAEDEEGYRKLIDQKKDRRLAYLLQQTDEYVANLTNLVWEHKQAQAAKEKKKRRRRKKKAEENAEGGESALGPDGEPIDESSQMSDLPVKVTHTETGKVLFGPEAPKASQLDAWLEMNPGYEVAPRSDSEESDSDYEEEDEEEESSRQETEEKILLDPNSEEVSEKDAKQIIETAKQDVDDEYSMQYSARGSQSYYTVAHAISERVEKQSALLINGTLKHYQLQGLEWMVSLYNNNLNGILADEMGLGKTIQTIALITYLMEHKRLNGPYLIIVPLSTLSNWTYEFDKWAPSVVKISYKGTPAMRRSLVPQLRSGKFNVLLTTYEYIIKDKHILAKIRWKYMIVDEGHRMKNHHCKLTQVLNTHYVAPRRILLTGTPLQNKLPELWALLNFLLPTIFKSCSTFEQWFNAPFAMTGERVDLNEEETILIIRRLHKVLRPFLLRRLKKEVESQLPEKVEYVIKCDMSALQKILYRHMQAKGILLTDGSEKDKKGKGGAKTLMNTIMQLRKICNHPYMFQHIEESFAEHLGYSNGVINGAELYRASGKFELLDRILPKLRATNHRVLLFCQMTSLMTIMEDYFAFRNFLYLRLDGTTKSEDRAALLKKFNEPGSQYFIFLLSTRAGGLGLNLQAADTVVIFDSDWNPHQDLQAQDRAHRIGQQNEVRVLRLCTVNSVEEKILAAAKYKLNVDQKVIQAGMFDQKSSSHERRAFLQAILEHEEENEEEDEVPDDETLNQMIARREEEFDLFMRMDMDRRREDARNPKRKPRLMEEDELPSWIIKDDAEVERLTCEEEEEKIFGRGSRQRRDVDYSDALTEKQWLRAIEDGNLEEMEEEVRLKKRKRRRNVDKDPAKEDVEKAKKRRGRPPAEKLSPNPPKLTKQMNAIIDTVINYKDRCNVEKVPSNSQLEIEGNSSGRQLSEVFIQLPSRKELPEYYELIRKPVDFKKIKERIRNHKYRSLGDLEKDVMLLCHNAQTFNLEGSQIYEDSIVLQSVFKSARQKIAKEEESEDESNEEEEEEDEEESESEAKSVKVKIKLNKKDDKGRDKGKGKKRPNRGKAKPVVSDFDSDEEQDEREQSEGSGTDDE
Method in brief: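 Recombinant BRM (30 nM) hydrolysed 400 μM ATP with 20 nM salmon sperm DNA in pH 8 Tris buffer containing 20 mM MgCl2, 50 mM NaCl, 0.1% Tween-20 and 1 mM DTT, 1 h at room temperature. ADP formed was quantified by ADP-Glo luminescence.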

[1] = ATPase catalytic activity, ADP-Glo

T1 sequence (P51532 whole entry): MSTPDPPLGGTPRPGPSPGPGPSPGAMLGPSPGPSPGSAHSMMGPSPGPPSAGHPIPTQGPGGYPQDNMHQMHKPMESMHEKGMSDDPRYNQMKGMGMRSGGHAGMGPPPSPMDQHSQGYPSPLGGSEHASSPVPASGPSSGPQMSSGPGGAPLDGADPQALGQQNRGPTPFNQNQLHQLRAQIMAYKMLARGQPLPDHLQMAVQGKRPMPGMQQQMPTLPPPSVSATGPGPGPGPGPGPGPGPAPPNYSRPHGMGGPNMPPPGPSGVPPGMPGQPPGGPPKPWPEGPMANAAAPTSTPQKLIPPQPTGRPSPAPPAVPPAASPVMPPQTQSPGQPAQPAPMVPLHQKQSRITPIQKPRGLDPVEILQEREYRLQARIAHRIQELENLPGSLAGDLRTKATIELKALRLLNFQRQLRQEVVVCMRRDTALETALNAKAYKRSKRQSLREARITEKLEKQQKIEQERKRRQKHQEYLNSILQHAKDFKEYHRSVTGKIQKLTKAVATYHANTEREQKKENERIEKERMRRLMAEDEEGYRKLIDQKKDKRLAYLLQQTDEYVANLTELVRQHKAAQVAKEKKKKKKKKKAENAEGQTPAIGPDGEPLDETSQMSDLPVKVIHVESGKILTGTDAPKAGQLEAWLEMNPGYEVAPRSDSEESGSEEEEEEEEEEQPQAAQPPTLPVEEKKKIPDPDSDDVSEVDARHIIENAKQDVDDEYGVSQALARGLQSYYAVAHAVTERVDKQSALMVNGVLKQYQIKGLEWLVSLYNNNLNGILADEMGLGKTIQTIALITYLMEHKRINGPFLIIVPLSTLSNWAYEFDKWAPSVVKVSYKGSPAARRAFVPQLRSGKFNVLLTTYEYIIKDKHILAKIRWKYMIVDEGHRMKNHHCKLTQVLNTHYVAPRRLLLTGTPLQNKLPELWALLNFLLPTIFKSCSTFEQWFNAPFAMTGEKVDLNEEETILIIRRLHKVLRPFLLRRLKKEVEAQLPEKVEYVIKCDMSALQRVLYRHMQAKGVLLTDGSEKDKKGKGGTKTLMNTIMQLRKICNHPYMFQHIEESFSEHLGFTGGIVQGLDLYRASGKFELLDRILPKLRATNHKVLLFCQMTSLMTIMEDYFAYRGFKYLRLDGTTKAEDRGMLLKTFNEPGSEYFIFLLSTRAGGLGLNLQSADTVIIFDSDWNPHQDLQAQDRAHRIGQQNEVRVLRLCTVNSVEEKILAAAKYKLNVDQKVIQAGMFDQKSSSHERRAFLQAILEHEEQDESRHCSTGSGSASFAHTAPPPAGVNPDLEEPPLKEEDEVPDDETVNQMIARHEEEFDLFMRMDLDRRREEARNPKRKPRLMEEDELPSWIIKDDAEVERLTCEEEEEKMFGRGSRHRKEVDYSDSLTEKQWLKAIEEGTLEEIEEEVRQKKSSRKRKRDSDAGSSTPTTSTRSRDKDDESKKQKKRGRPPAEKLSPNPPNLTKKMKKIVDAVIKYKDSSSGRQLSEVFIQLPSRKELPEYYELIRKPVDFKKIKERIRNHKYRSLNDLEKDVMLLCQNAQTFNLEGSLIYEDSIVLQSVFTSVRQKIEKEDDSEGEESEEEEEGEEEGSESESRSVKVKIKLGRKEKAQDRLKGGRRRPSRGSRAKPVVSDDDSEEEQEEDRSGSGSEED

IC50 (BRG-1; [1]) [nM] | IC50 (BRM; [1]) [nM] | Ratio* (BRM; ratio of BRG1 IC50 to BRM IC50) | IC50 (BRG-1; ADP-Glo ATPase assay) [nM] | IC50 (BRM; ADP-Glo ATPase assay) [nM] | Ratio* (BRG1 IC50 (μM) divided by BRM IC50 (μM)) (BRM) | Ratio* (BRM; ratio BRG1 IC50 / BRM IC50) | SMILES
 |  |  | 487 | 61.5 | 7.91 |  | O=C(NCc1cc2nc(-c3cccc(C4CCOCC4)n3)ccc2cn1)c1ccc2c(c1)S(=O)(=O)CCOC2 [Compound 133]
966 | 101 | 9.58 |  |  |  |  | CC1CCc2ccc(-c3ccc4cnc(CNC(=O)c5ccc6c(c5)S(=O)(=O)CCOC6)cc4n3)nc2N1C1CC1 (stereo not drawn) [Compound 425]
 |  |  | 4820 | 742 |  | 6.49 | Cc1ccc(-c2ccc3cnc(CNC(=O)c4ccc5c(c4)S(=O)(=O)CCOC5)cc3n2)c(=O)n1C [Compound 824]
 |  |  | 965 | 61.2 | 15.77 |  | O=C(NCc1cc2nc(-c3ccnc([C@H]4CC4(F)F)n3)ccc2cn1)c1ccc2c(c1)S(=O)(=O)CCOC2 [Compound 217]
 |  |  | 279 | 30 | 9.32 |  | O=C(NCc1cc2nc(-c3cncc(C4CC4)n3)ccc2cn1)c1ccc2c(c1)S(=O)(=O)CCOC2 [Compound 305]
832 | 122 | 6.83 |  |  |  |  | O=C(NCc1cc2nc(-c3ccc4c(n3)N3CCOCC3C4)ccc2cn1)c1ccc2c(c1)S(=O)(=O)CCOC2 (stereo not drawn) [Compound 466]
442 | 8.2 | 54.03 |  |  |  |  | O=C(NCc1cc2nc(N3CCOc4ccc(C5CC5)nc43)ccc2cn1)c1ccc2c(c1)S(=O)(=O)CCOC2 [Compound 616]
4260 | 271 | 15.73 |  |  |  |  | CCO[C@H](C)c1ccc2c(n1)N(c1ccc3cnc(CNC(=O)c4ccc5c(c4)S(=O)(=O)CCOC5)cc3n1)CCC2 [Compound 636]
 |  |  | 19.8 | 5.1 | 3.87 |  | C[C@@H]1C=C(c2cccc(-c3ccc4cnc(CNC(=O)c5ccc6c(c5)S(=O)(=O)CCOC6)cc4n3)n2)C[C@H](C)O1 [Compound 45]
 |  |  | 468 | 42.6 | 10.99 |  | O=C(NCc1cc2nc(-c3cccc(N4CC5(C4)CC5(F)F)n3)ccc2cn1)c1ccc2c(c1)S(=O)(=O)CCOC2 [Compound 128]
 |  |  | 484 | 56.2 |  | 8.61 | O=C(NCc1cc2nc(N3CCOc4nc(C5CC5)ccc43)ccc2cn1)c1ccc2c(c1)S(=O)(=O)CCOC2 [Compound 843]
 |  |  | 313 | 44.6 | 7.01 |  | CN(c1cccc(-c2ccc3cnc(CNC(=O)c4ccc5c(c4)S(=O)(=O)CCOC5)cc3n2)n1)[C@H]1CCOC1 [Compound 117]
120 | 11 | 10.96 |  |  |  |  | O=C(NCc1cc2nc(-c3cccc(N4CC[C@H]5C[C@H]5C4)n3)ccc2cn1)c1ccc2c(c1)S(=O)(=O)CCOC2 [Compound 322]
90.8 | 12.7 | 7.17 |  |  |  |  | CN1CCCc2ccc(-c3ccc4cnc(CNC(=O)c5ccc6c(c5)S(=O)(=O)CCOC6)cc4n3)nc21 [Compound 488]

The remaining lines, values behind:

SMILES | IC50 (BRG-1; [1]) [nM] | IC50 (BRM; [1]) [nM] | Ratio* (BRM; ratio of BRG1 IC50 to BRM IC50) | IC50 (BRG-1; ADP-Glo ATPase assay) [nM] | IC50 (BRM; ADP-Glo ATPase assay) [nM] | Ratio* (BRG1 IC50 (μM) divided by BRM IC50 (μM)) (BRM) | Ratio* (BRM; ratio BRG1 IC50 / BRM IC50)
C[C@H]1COCc2ccc(C(=O)NCc3cc4nc(-c5ccnc([C@H]6CC6(F)F)n5)ccc4cn3)cc2S1(=O)=O [Compound 464] | 986 | 36 | 27.40 |  |  |  | 
C[C@@H]1CN(c2cccc(-c3ccc4cnc(CNC(=O)c5ccc(COC6CC6)c(S(C)(=O)=O)c5)cc4n3)n2)C[C@H](C)O1 [Compound 578] | 525 | 27.7 | 19.00 |  |  |  | 
C[C@@H]1CN(c2cccc(-c3cnc4cnc(CNC(=O)c5ccc6c(c5)S(=O)(=O)CCOC6)cc4n3)c2)C[C@H](C)O1 [Compound 141] |  |  |  | 169 | 13 | 12.97 | 
CCN(C[C@H](C)OC)c1cccc(-c2ccc3cnc(CNC(=O)c4ccc5c(c4)S(=O)(=O)CCOC5)cc3n2)n1 [Compound 345] | 251 | 15 | 16.77 |  |  |  | 
O=C(NCc1cc2nc(-c3cncc(C4CC4)n3)ccc2cn1)c1cnc2c(c1)S(=O)(=O)CCCCC2 [Compound 450] | 183 | 14.9 | 12.27 |  |  |  | 
O=C(NCc1cc2nc(-c3cccc([C@H]4CC4(F)F)c3)ccc2cn1)c1ccc2c(c1)S(=O)(=O)CCOC2 [Compound 252] |  |  |  | 1380 | 75.3 | 18.31 | 
CCc1ccc2c(n1)N(c1ccc3cnc(CNC(=O)c4ccc5c(c4)S(=O)(=O)CCOC5)cc3n1)CCO2 [Compound 658] | 342 | 7 | 48.50 |  |  |  | 
COc1ccc2c(c1)OCCN2c1ccc2cnc(CNC(=O)c3ccc4c(c3)S(=O)(=O)CCOC4)cc2n1 [Compound 548] | 51.7 | 5.4 | 9.59 |  |  |  | 
Cc1nc(C)c2c(n1)N(c1ccc3cnc(CNC(=O)c4ccc5c(c4)S(=O)(=O)CCOC5)cc3n1)CCC2 [Compound 841] |  |  |  | 2080 | 290 |  | 7.16
COCCNc1cccc(-c2ccc3cnc(CNC(=O)c4ccc(C(F)F)c(S(C)(=O)=O)c4)cc3n2)n1 [Compound 80] |  |  |  | 2070 | 176 | 11.75 | 
COc1ccc2c(c1)N(c1ccc3cnc(CNC(=O)c4ccc5c(c4)S(=O)(=O)CCOC5)cc3n1)CCO2 [Compound 776] |  |  |  | 100 | 6.3 |  | 15.77
O=C(NCc1cc2nc(-c3cccc4c3OCC[C@H]4OC3COC3)ccc2cn1)c1ccc2c(c1)S(=O)(=O)CCOC2 [Compound 409] | 143 | 16.6 | 8.58 |  |  |  | 
O=C(NCc1cc2nc(N3CCCc4cc(C5CC5)cnc43)ccc2cn1)c1ccc2c(c1)S(=O)(=O)CCOC2 [Compound 394] | 87.9 | 5.8 | 15.21 |  |  |  | 
CS(=O)(=O)c1cc(C(=O)NCc2cc3nc(-c4cncc(C5CC5)n4)ccc3cn2)cnc1C(F)F [Compound 277] |  |  |  | 5360 | 615 | 8.72 | 
O=C(NCc1cc2cc(-c3cncc(N4CCC4)n3)ccc2cn1)c1ccc2c(c1)S(=O)(=O)CCOC2 [Compound 257] |  |  |  | 107 | 15.4 | 6.99 | 
COc1ncc(F)c2c1CCCN2c1ccc2cnc(CNC(=O)c3ccc4c(c3)S(=O)(=O)CCOC4)cc2n1 [Compound 825] |  |  |  | 246 | 31.9 |  | 7.70
Cc1cc(-c2ccc3cnc(CNC(=O)c4ccc5c(c4)S(=O)(=O)CCOC5)cc3n2)nc(N2C[C@@H](C)O[C@@H](C)C2)c1 [Compound 212] |  |  |  | 122 | 14.3 | 8.51 | 
Cc1ccc2c(n1)N(c1ccc3cnc(CNC(=O)c4ccc5c(c4)S(=O)(=O)CCOC5)cc3n1)CCO2 [Compound 557] | 235 | 11.3 | 20.89 |  |  |  | 
COCCc1ccc(C(=O)NCc2cc3nc(-c4cncc(C5CC5)n4)ccc3cn2)cc1S(C)(=O)=O [Compound 207] |  |  |  | 5000 | 407 | 12.29 | 
O=C(NCc1cc2nc(N3CCCc4ccc(Cl)cc43)ccc2cn1)c1ccc2c(c1)S(=O)(=O)CCOC2 [Compound 533] | 91.4 | 7.3 | 12.51 |  |  |  | 
